Experimental findings from patent publication US20260070945A1, “MACROCYCLIC IMMUNOMODULATORS” (Bristol-Myers Squibb Company, priority 2022, published 2026) are described below.

*1 amine or outer side, *2 acyl side, *3 side chain or, on linkers, in order; H or OH if unused. Where a SMILES comes first, the peptide text is derived from it. Bridges are numbered along the chain shown (N, C = ends). [ ]: non-standard residue; d: D form. The star is where a group is joined. ξ: configuration not given here. Trp(βS-Me) = C[C@@H](c1c[nH]c2ccccc12)[C@H](N)C(=O)O; Phe(3-CF3) = N[C@@H](Cc1cccc(C(F)(F)F)c1)C(=O)O; Phe(4-COOH) = N[C@@H](Cc1ccc(C(=O)O)cc1)C(=O)O; Bip = N[C@@H](Cc1ccc(-c2ccccc2)cc1)C(=O)O; Phe(4-CN) = N#Cc1ccc(C[C@H](N)C(=O)O)cc1; Phe(3-F) = N[C@@H](Cc1cccc(F)c1)C(=O)O; Phe(3-Me) = Cc1cccc(C[C@H](N)C(=O)O)c1; γGlu = O=C(O)[C@H](CCC(=O)[*:2])N[*:1]; NH(CH2)12COOH = O=C(O)CCCCCCCCCCCCN*; Val(3-OH) = CC(C)(O)[C@H](N)C(=O)O; hArg = N=C(N)NCCCC[C@H](N)C(=O)O; 4Pal = N[C@@H](Cc1ccncc1)C(=O)O; Cha = N[C@@H](CC1CCCCC1)C(=O)O; Cit = NC(=O)NCCC[C@H](N)C(=O)O; Ile(3ξ) = CCC(C)[C@H](N)C(=O)O; Thr(3ξ) = CC(O)[C@H](N)C(=O)O; Carboxymethyl = O=C(O)C*; NMeA = CN[C@@H](C)C(=O)O; Orn = NCCC[C@H](N)C(=O)O; Aun = NCCCCCCCCCCC(=O)O; Dab = NCC[C@H](N)C(=O)O; Dap = NC[C@H](N)C(=O)O; AEEA = NCCOCCOCC(=O)O; Ac3c = NC1(C(=O)O)CC1

The term IC50 denotes the concentration that inhibits the measured activity by half.

For the first test, the target named is T1, PD-1/PD-L1 interaction (PE-labeled human PD-L1-Ig binding to Jurkat cell line over-expressing human PD-1) (Homo sapiens, UniProt Q15116).
T1 construct: expressed in transfected cells; host or cells: Jurkat
T1 sequence (Q15116 25-288): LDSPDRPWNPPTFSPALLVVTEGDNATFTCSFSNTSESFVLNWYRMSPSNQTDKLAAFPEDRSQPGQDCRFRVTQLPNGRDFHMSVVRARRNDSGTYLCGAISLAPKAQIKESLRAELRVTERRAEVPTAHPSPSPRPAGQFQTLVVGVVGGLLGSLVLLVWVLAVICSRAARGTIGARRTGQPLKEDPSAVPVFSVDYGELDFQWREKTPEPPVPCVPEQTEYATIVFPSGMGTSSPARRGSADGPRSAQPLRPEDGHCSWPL
As to the kind of experiment: Jurkat-PD-1 Cell Binding High-Content Screening Assay (CBA). The note with it: Jurkat-hPD-1 cells, PE-labeled PD-L1-Ig 20 nM final; read-out: Jurkat HPD1 PDL1 IC50. The procedure, abridged:
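Read-out: high-content imaging of cell-bound PE fluorescence, with Hoechst 33342 nuclear counterstain after paraformaldehyde fixation. Before labeled ligand (20 nM final, 1 h) was added, compound sat on the cells for 2 h at 37 °C in DMEM/10% FCS.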
Consider `CC(C)C[C@@H]1NC(=O)[C@H](Cc2c[nH]c3ccccc23)NC(=O)[C@H](CC(=O)O)NC(=O)[C@H](Cc2ccc(C(=O)O)cc2)NC(=O)[C@H](Cc2ccc(OCC(=O)O)cc2)NC(=O)CSC[C@@H](C(=O)N[C@@H](CCN)C(=O)NCCCCCCCCCCC(=O)O)NC(=O)[C@H](CCC(N)=O)NC(=O)[C@H](C(C)C)NC(=O)[C@H](CC2CCCCC2)NC(=O)[C@H](CCN)NC(=O)[C@@H](CC(C)C)NC(=O)[C@H](C)N(C)C(=O)[C@H](C(C)C)NC(=O)[C@H](Cc2ccc(-c3ccccc3)cc2)NC1=O` [Example 1000] ({CH2CO}-Y(Carboxymethyl)[Phe(4-COOH)]DWL[Bip]V[NMeA][dL][Dab][Cha]VQC[Dab][Aun]-OH; thioether N-14), for which the half-maximal inhibitory concentration (IC50) was determined as 0.0234 µM.

For the compound `Cc1cccc(C[C@@H]2NC(=O)[C@H](CC(=O)O)NC(=O)[C@H](Cc3ccc(OCC(=O)O)cc3)NC(=O)[C@H](CCCNC(=N)N)NC(=O)CSC[C@@H](C(=O)N[C@@H](CCCCN)C(=O)NCCCCCCCCCCC(=O)O)NC(=O)[C@H]([C@@H](C)O)NC(=O)[C@H](C(C)C)NC(=O)[C@H](CC3CCCCC3)NC(=O)[C@H](CCN)NC(=O)[C@@H](CC(C)C)NC(=O)[C@H](C)N(C)C(=O)[C@H](Cc3ccc(OCC(=O)O)cc3)NC(=O)[C@H](Cc3ccc(-c4ccccc4)cc3)NC(=O)[C@H](Cc3ccc(OCC(=O)O)cc3)NC2=O)c1` [Example 1224] ({CH2CO}-RY(Carboxymethyl)D[Phe(3-Me)]Y(Carboxymethyl)[Bip]Y(Carboxymethyl)[NMeA][dL][Dab][Cha]VTCK[Aun]-OH; thioether N-14), the IC50 stood at 0.0279 µM.

For the compound `CC(C)C[C@@H]1NC(=O)[C@H](Cc2c[nH]c3ccccc23)NC(=O)[C@H](CC(=O)O)NC(=O)[C@H](Cc2ccc(C(=O)O)cc2)NC(=O)[C@H](Cc2ccc(OCC(=O)O)cc2)NC(=O)CSC[C@@H](C(=O)N[C@@H](CCCN)C(=O)NCCOCCOCC(=O)NCCCCCCCCCCC(=O)O)NC(=O)[C@@H](CO)NC(=O)[C@H](C(C)C)NC(=O)[C@H](CC2CCCCC2)NC(=O)[C@H](CCN)NC(=O)[C@@H](CC(C)C)NC(=O)[C@H](C)N(C)C(=O)[C@H](C(C)C)NC(=O)[C@H](Cc2ccc(-c3ccccc3)cc2)NC1=O` [Example 1242] ({CH2CO}-Y(Carboxymethyl)[Phe(4-COOH)]DWL[Bip]V[NMeA][dL][Dab][Cha]V[dS]C[Orn][AEEA][Aun]-OH; thioether N-14), the IC50 was 0.0198 µM.

For `CC(C)C[C@@H]1NC(=O)[C@H]([C@@H](C)c2c[nH]c3ccccc23)NC(=O)[C@H](CC(=O)O)NC(=O)[C@H](Cc2ccc(OCC(=O)O)cc2)NC(=O)[C@H](Cc2ccc(OCC(=O)O)cc2)NC(=O)CSC[C@@H](C(=O)NC2(C(=O)NCCOCCOCC(=O)NCCCCCCCCCCC(=O)O)CC2)NC(=O)[C@H](CCC(N)=O)NC(=O)[C@H](C(C)C)NC(=O)[C@H](CC2CCCCC2)NC(=O)[C@H](CCN)NC(=O)[C@@H](CC(C)C)NC(=O)[C@H](C)N(C)C(=O)[C@H](C(C)C)NC(=O)[C@H](Cc2ccc(-c3ccccc3)cc2)NC1=O` [Example 1272] ({CH2CO}-Y(Carboxymethyl)Y(Carboxymethyl)D[Trp(βS-Me)]L[Bip]V[NMeA][dL][Dab][Cha]VQC[Ac3c][AEEA][Aun]-OH; thioether N-14), the IC50 came to 0.0403 µM.

Take `COC[C@@H]1NC(=O)CSC[C@@H](C(=O)N[C@@H](CCN)C(=O)NCCOCCOCC(=O)N[C@@H](CCC(=O)NCCOCCOCC(=O)NCCCCCCCCCCCCC(=O)O)C(=O)O)NC(=O)[C@H](CCC(=O)O)NC(=O)[C@H](C(C)C)NC(=O)[C@H](CC2CCCCC2)NC(=O)[C@H](CCN)NC(=O)[C@@H](CC(C)C)NC(=O)[C@H](C)N(C)C(=O)[C@H](Cc2ccc(C(=O)O)cc2)NC(=O)[C@H](Cc2ccc(-c3ccccc3)cc2)NC(=O)[C@H](Cc2ccc(C(=O)O)cc2)NC(=O)[C@H](Cc2cccc(C(F)(F)F)c2)NC(=O)[C@H](CC(=O)O)NC(=O)[C@H](Cc2ccc(OCC(=O)O)cc2)NC1=O` [Example 1169] ({CH2CO}-S(Me)Y(Carboxymethyl)D[Phe(3-CF3)][Phe(4-COOH)][Bip][Phe(4-COOH)][NMeA][dL][Dab][Cha]VEC[Dab][AEEA][γGlu][AEEA]-{NH(CH2)12COOH}; thioether N-14): the IC50 is 0.0606 µM.

`Cc1cccc(C[C@@H]2NC(=O)[C@H](CC(=O)O)NC(=O)[C@H](Cc3ccc(C(=O)O)cc3)NC(=O)[C@H](Cc3ccc(OCC(=O)O)cc3)NC(=O)CSC[C@@H](C(=O)NCCCCCCCCCCC(=O)O)NC(=O)[C@H](C(C)O)NC(=O)[C@H](C(C)C)NC(=O)[C@H](CC3CCCCC3)NC(=O)[C@H](CCN)NC(=O)[C@@H](CC(C)C)NC(=O)[C@H](C)N(C)C(=O)[C@H](CCCNC(N)=O)NC(=O)[C@H](Cc3ccc(-c4ccccc4)cc3)NC(=O)[C@H](CC(C)C)NC2=O)c1` (stereo partly drawn) [Example 2330] ({CH2CO}-Y(Carboxymethyl)[Phe(4-COOH)]D[Phe(3-Me)]L[Bip][Cit][NMeA][dL][Dab][Cha]V[Thr(3ξ)]C[Aun]-OH; thioether N-14): the IC50 was determined as 0.0381 µM.

Turning to `CC(C)C[C@@H]1NC(=O)[C@H](Cc2c[nH]c3ccccc23)NC(=O)[C@H](CC(=O)O)NC(=O)[C@H](Cc2ccc(C(=O)O)cc2)NC(=O)[C@H](Cc2ccc(OCC(=O)O)cc2)NC(=O)CSC[C@@H](C(=O)N[C@@H](CCCN)C(=O)NCCOCCOCC(=O)NCCCCCCCCCCC(=O)O)NC(=O)[C@H](CN)NC(=O)[C@H](C(C)C)NC(=O)[C@H](CC2CCCCC2)NC(=O)[C@H](CCN)NC(=O)[C@@H](CC(C)C)NC(=O)[C@H](C)N(C)C(=O)[C@H](C(C)C)NC(=O)[C@H](Cc2ccc(-c3ccccc3)cc2)NC1=O` [Example 2134] ({CH2CO}-Y(Carboxymethyl)[Phe(4-COOH)]DWL[Bip]V[NMeA][dL][Dab][Cha]V[Dap]C[Orn][AEEA][Aun]-OH; thioether N-14), the IC50 was 0.032 µM.

Turning to `Cc1cccc(C[C@@H]2NC(=O)[C@H](CC(=O)O)NC(=O)[C@H](Cc3ccc(C(=O)O)cc3)NC(=O)[C@H](Cc3ccncc3)NC(=O)CSC[C@@H](C(=O)N[C@@H](CC(N)=O)C(=O)NCCOCCOCC(=O)NCCCCCCCCCCC(=O)O)NC(=O)[C@H](CCC(=O)O)NC(=O)[C@H](C(C)(C)O)NC(=O)[C@H](CC3CCCCC3)NC(=O)[C@H](CCN)NC(=O)[C@@H](CC(C)C)NC(=O)[C@H](C)N(C)C(=O)[C@H](Cc3ccc(OCC(=O)O)cc3)NC(=O)[C@H](Cc3ccc(-c4ccccc4)cc3)NC(=O)[C@H](Cc3ccc(OCC(=O)O)cc3)NC2=O)c1` [Example 1428] ({CH2CO}-[4Pal][Phe(4-COOH)]D[Phe(3-Me)]Y(Carboxymethyl)[Bip]Y(Carboxymethyl)[NMeA][dL][Dab][Cha][Val(3-OH)]ECN[AEEA][Aun]-OH; thioether N-14), the IC50 was determined as 0.429 µM.

Regarding `CC(C)C[C@@H]1NC(=O)[C@H](Cc2c[nH]c3ccccc23)NC(=O)[C@H](CC(=O)O)NC(=O)[C@H](Cc2ccc(OCC(=O)O)cc2)NC(=O)[C@H](CCCCNC(=N)N)NC(=O)CSC[C@@H](C(=O)NCC(=O)N[C@@H](CCN)C(=O)NCCCCCCCCCCC(=O)O)NC(=O)[C@H](CO)NC(=O)[C@H](C(C)C)NC(=O)[C@H](CC2CCCCC2)NC(=O)[C@H](CCN)NC(=O)[C@@H](CC(C)C)NC(=O)[C@H](C)N(C)C(=O)[C@H](C(C)C)NC(=O)[C@H](Cc2ccc(-c3ccccc3)cc2)NC1=O` [Example 2120] ({CH2CO}-[hArg]Y(Carboxymethyl)DWL[Bip]V[NMeA][dL][Dab][Cha]VSCG[Dab][Aun]-OH; thioether N-14), the IC50 is 0.0176 µM.

Still in this test, the particulars now being: PE-labeled PD-L1-Ig 20 nM final, Jurkat-hPD-1 cells; read-out: Jurkat HPD1 PDL1 IC50.
With `Cc1cccc(C[C@@H]2NC(=O)[C@H](CC(=O)O)NC(=O)[C@H](Cc3ccc(C#N)cc3)NC(=O)[C@H](C(C)O)NC(=O)CSC[C@@H](C(=O)N[C@@H](CCN)C(=O)NCCOCCOCC(=O)NCCOCCOCC(=O)NCCCCCCCCCCC(=O)O)NC(=O)[C@H](CCC(=O)O)NC(=O)[C@H](C(C)C)NC(=O)[C@H](CC3CCCCC3)NC(=O)[C@H](CCN)NC(=O)[C@@H](CC(C)C)NC(=O)[C@H](C)N(C)C(=O)[C@H](Cc3ccc(OCC(=O)O)cc3)NC(=O)[C@H](Cc3ccc(-c4ccccc4)cc3)NC(=O)[C@H](Cc3cccc(F)c3)NC2=O)c1` (stereo partly drawn) [Example 2526] ({CH2CO}-[Thr(3ξ)][Phe(4-CN)]D[Phe(3-Me)][Phe(3-F)][Bip]Y(Carboxymethyl)[NMeA][dL][Dab][Cha]VEC[Dab][AEEA][AEEA][Aun]-OH; thioether N-14), the 50% inhibitory concentration (IC50) worked out at 0.0169 µM.

Regarding `CCC(C)[C@@H]1NC(=O)[C@H](Cc2ccc(-c3ccccc3)cc2)NC(=O)[C@H](C(C)C)NC(=O)[C@H](Cc2c[nH]c3ccccc23)NC(=O)[C@H](CC(=O)O)NC(=O)[C@H](Cc2ccc(C(=O)O)cc2)NC(=O)[C@H](Cc2cnc[nH]2)NC(=O)CSC[C@@H](C(=O)N[C@@H](CCN)C(=O)NCCOCCOCC(=O)NCCCCCCCCCCC(=O)O)NC(=O)[C@H](C(C)O)NC(=O)[C@H](C(C)(C)O)NC(=O)[C@H](CC2CCCCC2)NC(=O)[C@H](CCN)NC(=O)[C@@H](CC(C)C)NC(=O)[C@H](C)N(C)C1=O` (stereo partly drawn) [Example 2530] ({CH2CO}-H[Phe(4-COOH)]DWV[Bip][Ile(3ξ)][NMeA][dL][Dab][Cha][Val(3-OH)][Thr(3ξ)]C[Dab][AEEA][Aun]-OH; thioether N-14), the IC50 came to 0.0024 µM.

Consider `CC(C)C[C@@H]1NC(=O)[C@H](Cc2c[nH]c3ccccc23)NC(=O)[C@H](CC(=O)O)NC(=O)[C@H](Cc2ccc(C(=O)O)cc2)NC(=O)[C@H](Cc2ccc(OCC(=O)O)cc2)NC(=O)CSC[C@@H](C(=O)NCCOCCOCC(=O)NCCCCCCCCCCC(=O)O)NC(=O)[C@H](CO)NC(=O)[C@H](C(C)(C)O)NC(=O)[C@H](CC2CCCCC2)NC(=O)[C@H](CCN)NC(=O)[C@@H](CC(C)C)NC(=O)[C@H](C)N(C)C(=O)[C@H](C(C)C)NC(=O)[C@H](Cc2ccc(-c3ccccc3)cc2)NC1=O` [Example 2443] ({CH2CO}-Y(Carboxymethyl)[Phe(4-COOH)]DWL[Bip]V[NMeA][dL][Dab][Cha][Val(3-OH)]SC[AEEA][Aun]-OH; thioether N-14), for which the IC50 is 0.0236 µM.
